What all share (assay type): in vitro ADME
The nature of series [1]: Liver microsomal stability, rat. The settings on record: 1 µM compound; 0.5 mg/mL microsomes; NADPH; 30 minutes at 37°C. The essentials: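 Compound (1 µM) incubated with liver microsomes (0.5 mg/mL; human, dog, rat, mouse) in 0.1 M phosphate pH 7.4, 5 min preincubation at 37°C, then 30 min with NADPH-generating system. Acetonitrile quench; remaining parent quantified by LC-MS/MS.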

Another series addresses T1, CYP1A2 (Homo sapiens, UniProt P05177).
T1 construct: human liver microsomes (0.25 mg/mL); from tissue; host or cells: human liver microsomes
T1 sequence (P05177 1-516): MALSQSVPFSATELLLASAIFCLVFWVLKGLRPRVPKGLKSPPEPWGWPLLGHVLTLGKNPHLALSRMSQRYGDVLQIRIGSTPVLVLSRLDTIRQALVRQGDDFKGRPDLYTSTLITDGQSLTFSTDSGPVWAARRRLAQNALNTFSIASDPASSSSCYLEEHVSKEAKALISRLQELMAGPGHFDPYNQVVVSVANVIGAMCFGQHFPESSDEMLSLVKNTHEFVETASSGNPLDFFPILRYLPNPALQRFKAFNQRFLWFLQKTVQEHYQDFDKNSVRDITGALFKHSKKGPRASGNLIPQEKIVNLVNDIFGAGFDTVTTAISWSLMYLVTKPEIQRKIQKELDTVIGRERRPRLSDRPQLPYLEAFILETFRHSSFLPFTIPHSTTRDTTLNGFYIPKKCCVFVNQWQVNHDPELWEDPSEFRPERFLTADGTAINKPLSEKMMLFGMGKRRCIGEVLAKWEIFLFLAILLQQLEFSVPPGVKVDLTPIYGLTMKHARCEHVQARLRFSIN
Put plainly: CYP isoenzyme activity inhibition in human liver microsomes, CYP1A2. Conditions: 10 µM compound; human liver microsomes 0.25 mg/mL; relative to control without compound. The essentials: (§1)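 Human liver microsomes 0.25 mg/mL, pH 7.4 phosphate, with cocktail substrates phenacetin 50 µM (1A2), diclofenac 10 µM (2C9), S-mephenytoin 100 µM (2C19), midazolam 2.5 µM (3A4); compound at 10 µM. 5 min pre-incubation, then NADPH for 15 min at 37 °C; metabolites by LC-MS/MS MRM, reported as % activity of no-compound control.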

The next series has as its target T2, CYP2C9 (Homo sapiens, UniProt P11712).
T2 construct: human liver microsomes (0.25 mg/mL); from tissue; host or cells: human liver microsomes
In words: CYP isoenzyme activity inhibition in human liver microsomes, CYP2C9. Conditions: 10 µM compound; human liver microsomes 0.25 mg/mL; relative to control without compound. The essentials: as §1

The next series addresses T3, CYP2C19 (Homo sapiens, UniProt P33261).
T3 construct: human liver microsomes (0.25 mg/mL); from tissue; host or cells: human liver microsomes
Put plainly: CYP isoenzyme activity inhibition in human liver microsomes, CYP2C19. Conditions: 10 µM compound; human liver microsomes 0.25 mg/mL; relative to control without compound. The essentials: as §1

In the next series the target is T4, CYP2D6 (Homo sapiens, UniProt P10635).
T4 construct: human liver microsomes (0.25 mg/mL); from tissue; host or cells: human liver microsomes
T4 sequence (P10635 whole entry): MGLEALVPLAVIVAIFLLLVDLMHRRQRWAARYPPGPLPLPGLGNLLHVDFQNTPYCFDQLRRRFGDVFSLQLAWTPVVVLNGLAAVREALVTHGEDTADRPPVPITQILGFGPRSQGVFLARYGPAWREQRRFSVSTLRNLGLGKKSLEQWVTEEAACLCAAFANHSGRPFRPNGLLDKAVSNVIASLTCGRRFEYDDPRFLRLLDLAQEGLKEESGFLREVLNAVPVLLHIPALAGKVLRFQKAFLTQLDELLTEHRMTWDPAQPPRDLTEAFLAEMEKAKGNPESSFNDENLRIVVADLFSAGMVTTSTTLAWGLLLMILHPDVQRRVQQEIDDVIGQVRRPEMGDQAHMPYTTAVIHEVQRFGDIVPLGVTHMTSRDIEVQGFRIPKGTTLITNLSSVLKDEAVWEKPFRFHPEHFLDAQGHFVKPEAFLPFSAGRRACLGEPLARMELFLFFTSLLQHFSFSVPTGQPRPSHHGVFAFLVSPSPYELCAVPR
Put plainly: CYP isoenzyme activity inhibition in human liver microsomes, CYP2D6. The settings on record: 10 µM compound; human liver microsomes 0.25 mg/mL; relative to control without compound. On the technique in general: Liver microsomes are a subcellular fraction often used to study metabolism.

The target in another series is T5, CYP3A4 (Homo sapiens, UniProt P08684).
T5 construct: human liver microsomes (0.25 mg/mL); from tissue; host or cells: human liver microsomes
T5 sequence (P08684 whole entry): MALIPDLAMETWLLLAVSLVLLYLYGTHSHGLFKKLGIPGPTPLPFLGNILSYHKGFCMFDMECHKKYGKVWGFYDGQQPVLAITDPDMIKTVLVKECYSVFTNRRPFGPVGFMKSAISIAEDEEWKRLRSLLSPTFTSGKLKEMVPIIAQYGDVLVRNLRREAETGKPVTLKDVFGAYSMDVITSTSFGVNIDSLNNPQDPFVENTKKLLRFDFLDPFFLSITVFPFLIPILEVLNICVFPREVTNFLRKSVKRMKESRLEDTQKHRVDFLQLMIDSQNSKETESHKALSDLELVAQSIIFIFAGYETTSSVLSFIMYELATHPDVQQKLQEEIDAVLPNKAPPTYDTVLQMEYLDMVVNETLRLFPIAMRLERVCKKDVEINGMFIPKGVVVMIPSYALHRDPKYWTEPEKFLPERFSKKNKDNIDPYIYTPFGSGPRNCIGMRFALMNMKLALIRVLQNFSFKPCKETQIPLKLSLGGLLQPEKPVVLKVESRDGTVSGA
In words: CYP isoenzyme activity inhibition in human liver microsomes, CYP3A4. Conditions: 10 µM compound; human liver microsomes 0.25 mg/mL; relative to control without compound. In short, it runs like this: as §1

SMILES strings stand for the structures. A value given as a limit tells only on which side of the number the result lay.

T3 sequence (P33261 whole entry): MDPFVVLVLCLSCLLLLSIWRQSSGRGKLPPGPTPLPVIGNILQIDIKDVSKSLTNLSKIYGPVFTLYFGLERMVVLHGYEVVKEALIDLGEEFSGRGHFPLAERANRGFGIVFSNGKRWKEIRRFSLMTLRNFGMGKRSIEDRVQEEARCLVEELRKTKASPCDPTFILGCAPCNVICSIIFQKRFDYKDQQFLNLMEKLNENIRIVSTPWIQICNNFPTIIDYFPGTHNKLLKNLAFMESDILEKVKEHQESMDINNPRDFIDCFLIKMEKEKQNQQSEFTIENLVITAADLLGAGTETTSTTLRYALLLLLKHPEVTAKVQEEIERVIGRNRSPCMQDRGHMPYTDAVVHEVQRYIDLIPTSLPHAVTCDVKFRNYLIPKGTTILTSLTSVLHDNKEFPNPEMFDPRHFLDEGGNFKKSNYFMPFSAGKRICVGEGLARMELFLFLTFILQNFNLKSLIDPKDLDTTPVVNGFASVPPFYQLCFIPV
T2 sequence (P11712 whole entry): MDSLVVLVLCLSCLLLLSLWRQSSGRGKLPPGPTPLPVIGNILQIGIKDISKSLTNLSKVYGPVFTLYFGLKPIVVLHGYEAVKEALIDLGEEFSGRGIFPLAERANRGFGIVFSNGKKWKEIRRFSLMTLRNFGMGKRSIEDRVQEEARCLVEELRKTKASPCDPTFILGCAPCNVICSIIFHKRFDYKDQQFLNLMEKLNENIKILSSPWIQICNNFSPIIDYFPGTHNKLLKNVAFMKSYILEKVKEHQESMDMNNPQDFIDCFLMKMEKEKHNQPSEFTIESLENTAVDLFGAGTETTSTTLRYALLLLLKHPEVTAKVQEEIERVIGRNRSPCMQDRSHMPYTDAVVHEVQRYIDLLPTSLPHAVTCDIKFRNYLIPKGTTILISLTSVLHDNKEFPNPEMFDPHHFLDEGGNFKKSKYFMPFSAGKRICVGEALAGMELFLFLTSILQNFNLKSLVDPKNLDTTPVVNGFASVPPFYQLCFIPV

Take `N#CC(C#N)=NNc1ccc2nc(N3CC[C@@H](F)C3)oc2c1` [Compound 41, (R)-(2-(3-fluoropyrrolidin-1-yl)benzo[d]oxazol-6-yl)carbonohydrazonoyl dicyanide]: the “Rat microsomes (% remaining)” value in series [1] is 19.0 % remaining. Also, on CYP1A2, the “CYP1A2 (% activity)” value was determined as 71.9 % activity. The “CYP2C9 (% activity)” value at CYP2C9 was 51.2 % activity. For the same compound, the “CYP2C19 (% activity)” value at CYP2C19 is recorded as 86.7 % activity. The “CYP2D6 (% activity)” value on CYP2D6 was found to be 86.8 % activity. Besides, the “CYP3A4 (% activity)” value at CYP3A4 is 86.5 % activity.
`N#CC(C#N)=NNc1ccc2oc(N3CCOCC3)nc2c1` [Compound 3, (2-morpholinobenzo[d]oxazol-5-yl)carbonohydrazonoyl dicyanide]: the “Rat microsomes (% remaining)” value in series [1] is 73.0 % remaining. Also, the “CYP1A2 (% activity)” value on CYP1A2 is 99.9 % activity. The “CYP2C9 (% activity)” value at CYP2C9 is listed as greater than 100 % activity. Also, the “CYP2C19 (% activity)” value at CYP2C19 is greater than 100 % activity. Moreover, the “CYP2D6 (% activity)” value at CYP2D6 is recorded as greater than 100 % activity. In addition, on CYP3A4, the “CYP3A4 (% activity)” value was greater than 100 % activity.
On to `N#CC(C#N)=NNc1ccc2nc(N3CC4CCC(C3)O4)sc2c1` [Compound 23, (2-(8-oxa-3-azabicyclo[3.2.1]octan-3-yl)benzo[d]thiazol-6-yl)carbonohydrazonoyl dicyanide], for which the “Rat microsomes (% remaining)” value in series [1] is reported as 69.8 % remaining. The “CYP1A2 (% activity)” value at CYP1A2 was found to be 70.6 % activity. Further, the “CYP2C9 (% activity)” value at CYP2C9 turned out to be 68.5 % activity. On CYP2C19, the “CYP2C19 (% activity)” value stood at 69.6 % activity. In addition, the “CYP2D6 (% activity)” value on CYP2D6 was 71.5 % activity. The “CYP3A4 (% activity)” value at CYP3A4 stood at 71.7 % activity.
For the compound `N#CC(C#N)=NNc1ccc2nc(N3C4CCC3COC4)sc2c1` [Compound 11, (2-(3-oxa-8-azabicyclo[3.2.1]octan-8-yl)benzo[d]thiazol-6-yl)carbonohydrazonoyl dicyanide], in series [1], the “Rat microsomes (% remaining)” value came out at 73.9 % remaining. In addition, the “CYP1A2 (% activity)” value on CYP1A2 is recorded as 83.7 % activity. For the same compound, the “CYP2C9 (% activity)” value at CYP2C9 stood at 70.2 % activity. Further, the “CYP2C19 (% activity)” value on CYP2C19 is given as 80.3 % activity. In addition, on CYP2D6, the “CYP2D6 (% activity)” value amounted to 98.6 % activity. At CYP3A4, the “CYP3A4 (% activity)” value is reported as 78.4 % activity.
In the case of `N#CC(C#N)=NNc1ccc2nc(N3CC4CCC(C3)O4)oc2c1` [Compound 26, (2-(8-oxa-3-azabicyclo[3.2.1]octan-3-yl)benzo[d]oxazol-6-yl)carbonohydrazonoyl dicyanide], the “Rat microsomes (% remaining)” value in series [1] came out at 95.1 % remaining. Also, the “CYP1A2 (% activity)” value on CYP1A2 was 79.1 % activity. Besides, the “CYP2C9 (% activity)” value at CYP2C9 is on record as 53.3 % activity. Also, the “CYP2C19 (% activity)” value on CYP2C19 was found to be 82.1 % activity. In addition, on CYP2D6, the “CYP2D6 (% activity)” value was determined as 82.1 % activity. Further, the “CYP3A4 (% activity)” value at CYP3A4 is 81.3 % activity.
`N#CC(C#N)=NNc1ccc2sc(N3CCOCC3)nc2c1` [Compound 1, (2-morpholinobenzo[d]thiazol-5-yl)carbonohydrazonoyl dicyanide]: the “Rat microsomes (% remaining)” value in series [1] is recorded as 2.1 % remaining. At CYP1A2, the “CYP1A2 (% activity)” value came to 80.2 % activity. Moreover, on CYP2C9, the “CYP2C9 (% activity)” value is on record as 82.5 % activity. Also, the “CYP2C19 (% activity)” value on CYP2C19 was greater than 100 % activity. Besides, the “CYP2D6 (% activity)” value on CYP2D6 is reported as greater than 100 % activity. Also, at CYP3A4, the “CYP3A4 (% activity)” value was found to be 95.5 % activity.
Regarding `CC(=O)N1CCN(c2nc3ccc(NN=C(C#N)C#N)cc3o2)CC1` [Compound 31, (2-(4-acetylpiperazin-1-yl)benzo[d]oxazol-6-yl)carbonohydrazonoyl dicyanide], the “Rat microsomes (% remaining)” value in series [1] is listed as 88.3 % remaining. In addition, the “CYP1A2 (% activity)” value at CYP1A2 came to 92.7 % activity. Besides, the “CYP2C9 (% activity)” value on CYP2C9 is recorded as 88.8 % activity. The “CYP2C19 (% activity)” value on CYP2C19 turned out to be 90.8 % activity. In addition, at CYP2D6, the “CYP2D6 (% activity)” value was 93.3 % activity. On CYP3A4, the “CYP3A4 (% activity)” value amounted to 88.3 % activity.
For the compound `N#CC(C#N)=NNc1ccc2nc(NC(=O)N3CCOCC3)sc2c1` [Compound 38, (2-(morpholine-4-carboxamido)benzo[d]thiazol-6-yl)carbonohydrazonoyl dicyanide], in series [1], the “Rat microsomes (% remaining)” value is given as 96.0 % remaining. In addition, the “CYP1A2 (% activity)” value on CYP1A2 is listed as 83.9 % activity. For the same compound, the “CYP2C9 (% activity)” value at CYP2C9 was found to be 73.6 % activity. The “CYP2C19 (% activity)” value at CYP2C19 is on record as 80 % activity. Also, on CYP2D6, the “CYP2D6 (% activity)” value amounted to 95.7 % activity. The “CYP3A4 (% activity)” value at CYP3A4 was 86.7 % activity.
Regarding `N#CC(C#N)=NNc1ccc2nc(N3C4CCC3COC4)oc2c1` [Compound 20, (2-(3-oxa-8-azabicyclo[3.2.1]octan-8-yl)benzo[d]oxazol-6-yl)carbonohydrazonoyl dicyanide], the “Rat microsomes (% remaining)” value in series [1] worked out at 82.9 % remaining. In addition, the “CYP1A2 (% activity)” value at CYP1A2 was 55.6 % activity. For the same compound, at CYP2C9, the “CYP2C9 (% activity)” value is given as 48 % activity. Also, the “CYP2C19 (% activity)” value at CYP2C19 amounted to 51.8 % activity. Further, the “CYP2D6 (% activity)” value on CYP2D6 is given as 57.5 % activity. The “CYP3A4 (% activity)” value on CYP3A4 is 55.4 % activity.
On to `CC1CN(c2nc3ccc(NN=C(C#N)C#N)cc3o2)CCO1` (stereo not drawn) [Compound 15, (2-(2-methylmorpholino)benzo[d]oxazol-6-yl)carbonohydrazonoyl dicyanide], for which, in series [1], the “Rat microsomes (% remaining)” value turned out to be 60 % remaining. Further, the “CYP1A2 (% activity)” value on CYP1A2 came out at 80.2 % activity. Also, the “CYP2C9 (% activity)” value at CYP2C9 is reported as 88.6 % activity. For the same compound, at CYP2C19, the “CYP2C19 (% activity)” value was 87.9 % activity. At CYP2D6, the “CYP2D6 (% activity)” value is greater than 100 % activity. Besides, the “CYP3A4 (% activity)” value at CYP3A4 is 87.3 % activity.
